Columns and labels:
[1] = target: ACE2 (Homo sapiens, UniProt Q9BYF1); assay: LSPR assay, binding to ACE2
[2] = test system: HEK293T/hACE2 cells
[3] = mouse, in vivo

Sequence of ACE2 (Q9BYF1 18-805): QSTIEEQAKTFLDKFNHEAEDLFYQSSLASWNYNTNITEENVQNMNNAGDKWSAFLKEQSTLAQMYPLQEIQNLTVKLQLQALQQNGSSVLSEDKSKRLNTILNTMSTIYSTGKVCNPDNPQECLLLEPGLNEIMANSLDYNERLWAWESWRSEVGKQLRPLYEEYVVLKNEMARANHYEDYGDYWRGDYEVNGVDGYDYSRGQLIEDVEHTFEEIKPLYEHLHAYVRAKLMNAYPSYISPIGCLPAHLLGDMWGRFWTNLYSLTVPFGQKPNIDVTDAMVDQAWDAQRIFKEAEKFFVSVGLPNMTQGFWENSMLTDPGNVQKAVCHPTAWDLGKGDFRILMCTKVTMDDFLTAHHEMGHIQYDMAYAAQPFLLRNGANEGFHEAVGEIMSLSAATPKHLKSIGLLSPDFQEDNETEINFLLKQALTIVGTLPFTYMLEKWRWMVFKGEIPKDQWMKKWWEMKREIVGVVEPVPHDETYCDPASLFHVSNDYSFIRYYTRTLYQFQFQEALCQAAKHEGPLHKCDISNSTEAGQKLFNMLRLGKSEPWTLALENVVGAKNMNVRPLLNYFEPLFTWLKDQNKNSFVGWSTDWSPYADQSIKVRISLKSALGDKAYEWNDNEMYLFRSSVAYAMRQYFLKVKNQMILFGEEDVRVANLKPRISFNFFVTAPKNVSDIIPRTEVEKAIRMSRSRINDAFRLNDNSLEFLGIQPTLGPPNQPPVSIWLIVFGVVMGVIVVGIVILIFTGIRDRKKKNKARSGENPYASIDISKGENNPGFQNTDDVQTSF

In the case of `CC(C)C[C@H](NC(=O)[C@@H]1CCCN1C(=O)[C@H](Cc1ccccc1)NC(=O)[C@H](Cc1ccc(O)cc1)NC(=O)[C@H](CS)NC(=O)[C@H](CC(N)=O)NC(=O)[C@H](Cc1ccccc1)NC(=O)CNC(=O)[C@H](CCC(=O)O)NC(=O)[C@@H](NC(=O)[C@H](CCCCN)NC(=O)[C@H](CCCCN)NC(=O)[C@H](CCCCN)NC(=O)[C@H](CCCCN)NC(=O)[C@H](CCCCN)NC(=O)[C@@H](N)CCCCN)C(C)C)C(=O)N[C@@H](CCC(N)=O)C(=O)N[C@@H](CO)C(=O)O` [AYp28], the Kd [1] is reported as 47.6 nM, the koff ([1]; pH 7.4) is reported as 0.000205 s⁻¹ and the kon ([1]; pH 7.4) is reported as 4310 M⁻¹ s⁻¹. The cytotoxicity [2] was “no significant cytotoxicity”, the “distribution in livers and kidneys” value [3] was “not in the kidneys and livers” and the “distribution in lungs and small intestine” value [3] was “preferentially distributed in the lungs and intestine”.
